{"source": "patent US10968457B2", "about": "“Drug-inducible promoter and method of inducting gene expression using the same” (TOYOTA JIDOSHA KABUSHIKI KAISHA, priority 2015, dated 2021)", "key": {"sugarcane variety Q165": {"tested_on": "sugarcane variety Q165", "assay": "RNAseq expression analysis of leaves before and after probenazole treatment", "assay_type": "in vivo", "conditions": "8% Oryzemate granules, 20 g/4 liters of soil, about 60 days after planting, selected gene", "from_the_text": "In Example 1, at the outset, a sugarcane variety Q165 was subjected to drug treatment with probenazole (8% Oryzemate granules, Meiji Seika Pharma Co., Ltd., 20 g/4 liters of soil) approximately 60 days after it had been planted. The leaves that had expanded from the top were sampled before and after the treatment, and total RNA was extracted using the RNeasy Plant Mini Kit (QIAGEN).\nSubsequently, the obtained total RNA was subjected to RNAseq expression analysis (Illumina HiSeq Sequencing, both-ends analysis), so as to obtain read data set. With the use of the assembler (Velvet version 1.2.08), the read data were reassembled into contig sequence information. The contig sequence information resulting from such reassembly was compared with each RNA sequence, and mapping data were obtained using a mapping program (Bowtie version 1.0.0). The resulting data were designated as the original data for RNAseq analysis.\nOn the basis of the EST sequence, two types of gene expression regulatory DNAs located in the 5′ upstream region of the selected gene were obtained by the Straight Walk method developed by BEX Co., Ltd. Such gene expression regulatory DNAs are drug-inducible promoters whose transcription activity is activated in the presence of a drug, such as probenazole. […]"}, "[1]": {"tested_on": "drug-inducible promoters, tp1 and tp2", "assay": "Real-time PCR of RNA levels in recombinants carrying tp1 or tp2 expression vectors, with and without probenazole treatment", "assay_type": "in vivo, sugarcane variety Q165", "conditions": "Recombinants 1 to 8; Oryzemate granules (8% probenazole), 20 g/4 liters of soil; leaves sampled 0, 7 and 14 days after treatment; FIG. 7", "method": "In Example 2, transcription promoting activity of the two types of drug-inducible promoters, tp1 and tp2, isolated in Example 1 was examined in the presence and in the absence of probenazole.\nWith the use of the tp1-carrying expression vector and the tp2-carrying expression vector constructed in the manner described above, Recombinants 1 to 8 were prepared. Recombinants 1 to 7 were prepared with the use of the tp1-carrying expression vector, and Recombinant 8 was prepared with the use of the tp2-carrying expression vector.\nRecombinants 1 to 8 prepared in the manner described above were treated with Oryzemate granules (8% probenazole, Meiji Seika Pharma Co., Ltd., 20 g/4 liters of soil), and leaves were sampled therefrom 0 days after drug treatment (i.e., immediately before the treatment), 7 days after drug treatment, and 14 days after drug treatment. The RNA levels of the recombinants were quantified using the AB17500 real-time PCR apparatus (Applied BioSystems) in accordance with the SYBR Green method. A comparative example shown in FIG. 7 concerns a recombinant prepared with the use of ecc0002-Hd3a-pIG121-Hm. The control example shown in FIG. 7 concerns the Q165 wild-type sugarcane variety."}}, "data": [{"smiles": "C=CCOC1=NS(=O)(=O)c2ccccc21", "note": "[probenazole]", "values": [{"measurement": "increase in expression levels of EST sequence, drug treatment group versus non-treatment group", "setting": "sugarcane variety Q165", "result": "≥ 100", "unit": "fold"}, {"measurement": "degree of gene expression induction", "setting": "[1]", "result": "≥ 3", "unit": "times"}]}]}
